Measurements: article PMC5548886 (Cancer Medicine, 2017)

Key:
Assay in all cases: IHC of tumor biopsies, H-score change on-treatment vs pretreatment
Assay type in all cases: in vivo, human
[1] = test system: p-AKT473
Description: (§1) Pharmacodynamic markers were examined using peripheral blood samples, tumor and nevi biopsies (when available) and tumor imaging. BRAF mutation status was determined by Sanger sequencing. Pharmacodynamic markers analyzed, in available tumor/nevus samples obtained before treatment or archival tissue and during treatment on cycle 1, day 8 or day 15, including cytoplasmic p‐MEK, p‐ERK, BIM, c‐KIT, p‐AKT473, pS6 and PTEN, and nuclear p‐ERK, Ki‐67, PARP, cyclin D1, MITF, p27, and p53. Biomarker expression was determined by calculating the percentage of change in the H‐score (14) between on‐treatment and fresh/archival pretreatment specimens. Blood levels of VEGFR‐2 and were assessed before and at multiple time points while on treatment using enzyme‐linked immunosorbent assay (ELISA). […] Changes in standard uptake value (SUV) were determined by a blinded, independent central imaging review panel. Complete metabolic response (CMR) was complete resolution of tumor FDG‐PET uptake so SUV is the same as background. Partial metabolic response (PMR) decrease in sum of the tumor SUV of ≥25% from the baseline scan. Progressive metabolic disease (PMD) was defined as an increase in tumor SUV of ≥25% from the baseline scan, or the appearance of new FDG‐PET uptake in metastatic lesions. Stable metabolic disease (SMD) was defined as a change in tumor SUV between the PMR and PMD criteria.

[2] = test system: MITF
Description: as §1

[3] = test system: p27
Description: as §1

[4] = test system: cytoplasmic p-MEK
Description: as §1

[5] = test system: BIM
Description: as §1

[6] = test system: cyclin D1
Description: as §1

Cn1c(Nc2ccc(C(F)(F)F)cc2)nc2cc(Oc3ccnc(-c4ncc(C(F)(F)F)[nH]4)c3)ccc21 [RAF265]
PAKT473 % change vs pretreatment, Mean (SD) ([1]; All patients, n 19): +1.2 (105.4) % | PAKT473 % change vs pretreatment, Median ([1]; All patients, n 19): -4.6% | PAKT473 % change vs pretreatment, Mean (SD) ([1]; DL 5, n 1): -4.6% | PAKT473 % change vs pretreatment, Median ([1]; DL 5, n 1): -4.6% | p-AKT, median decrease ([1]; DL 6): 46.7% | PAKT473 % change vs pretreatment, Mean (SD) ([1]; DL 6, n 4): -48.4(55.9) % | PAKT473 % change vs pretreatment, Median ([1]; DL 6, n 4): -46.7% | PAKT473 % change vs pretreatment, Mean (SD) ([1]; DLs 1 - 4, n 11): +20.1(132.9) % | PAKT473 % change vs pretreatment, Median ([1]; DLs 1 - 4, n 11): -20% | PAKT473 % change vs pretreatment, Mean (SD) ([1]; DLs 7 and 7.1, n 3): 0% | PAKT473 % change vs pretreatment, Median ([1]; DLs 7 and 7.1, n 3): 0% | MITF % change vs pretreatment, Mean(SD) ([2]; All patients, n 21): +197.3(856.9) % | MITF % change vs pretreatment, Median ([2]; All patients, n 21): -13.2% | MITF % change vs pretreatment, Mean(SD) ([2]; DL 5, n 2): +11.8 (23.7) % | MITF % change vs pretreatment, Median ([2]; DL 5, n 2): +11.8% | MITF % change vs pretreatment, Mean(SD) ([2]; DL 6, n 6): +20.1 (111.3) % | MITF % change vs pretreatment, Median ([2]; DL 6, n 6): -6.60% | MITF % change vs pretreatment, Mean(SD) ([2]; DLs 1 - 4, n 9): +400.6(1312.5) % | MITF % change vs pretreatment, Median ([2]; DLs 1 - 4, n 9): -27.3% | MITF % change vs pretreatment, Mean(SD) ([2]; DLs 7 and 7.1, n 4): +98.6 (239.7) % | MITF % change vs pretreatment, Median ([2]; DLs 7 and 7.1, n 4): 0% | P27 % change vs pretreatment, Mean (SD) ([3]; All patients, n 20): +86 (251.9) % | P27 % change vs pretreatment, Median ([3]; All patients, n 20): +5% | P27 % change vs pretreatment, Mean (SD) ([3]; DL 5, n 2): -40 (56.6) % | P27 % change vs pretreatment, Median ([3]; DL 5, n 2): -40% | p27 abundance, median increase ([3]; DL 6): 30.4% | P27 % change vs pretreatment, Mean (SD) ([3]; DL 6, n 5): +156.4 (312.2) % | P27 % change vs pretreatment, Median ([3]; DL 6, n 5): +30.4% | p27 abundance, median increase ([3]; DL 7/7.1): 72.2% | P27 % change vs pretreatment, Mean (SD) ([3]; DLs 1 - 4, n 9): -2.2 (44) % | P27 % change vs pretreatment, Median ([3]; DLs 1 - 4, n 9): 0% | P27 % change vs pretreatment, Mean (SD) ([3]; DLs 7 and 7.1, n 4): +261.1 (427.3) % | P27 % change vs pretreatment, Median ([3]; DLs 7 and 7.1, n 4): +72.2% | cytoplasmic pMEK % change vs pretreatment, Mean (SD) ([4]; All patients, n 23): -4.3 (32) % | cytoplasmic pMEK % change vs pretreatment, Median ([4]; All patients, n 23): -9.1% | cytoplasmic pMEK % change vs pretreatment, Mean (SD) ([4]; DL 5, n 2): 0% | cytoplasmic pMEK % change vs pretreatment, Median ([4]; DL 5, n 2): 0% | cytoplasmic pMEK % change vs pretreatment, Mean (SD) ([4]; DL 6, n 6): -16.1 (17.3) % | cytoplasmic pMEK % change vs pretreatment, Median ([4]; DL 6, n 6): -15.3% | cytoplasmic pMEK % change vs pretreatment, Mean (SD) ([4]; DLs 1 - 4, n 11): +0.8 (44.4) % | cytoplasmic pMEK % change vs pretreatment, Median ([4]; DLs 1 - 4, n 11): -11.1% | cytoplasmic pMEK % change vs pretreatment, Mean (SD) ([4]; DLs 7 and 7.1, n 4): -2.6 (5.3) % | cytoplasmic pMEK % change vs pretreatment, Median ([4]; DLs 7 and 7.1, n 4): 0% | BIM % change vs pretreatment, Mean (SD) ([5]; All patients, n 14): -17.00 (54.5) % | BIM % change vs pretreatment, Median ([5]; All patients, n 14): 0% | BIM % change vs pretreatment, Mean (SD) ([5]; DL 5, n 1): -100% | BIM % change vs pretreatment, Median ([5]; DL 5, n 1): -100% | BIM % change vs pretreatment, Mean (SD) ([5]; DL 6, n 2): -7.1 (11.1) % | BIM % change vs pretreatment, Median ([5]; DL 6, n 2): -7.1% | BIM % change vs pretreatment, Mean (SD) ([5]; DLs 1 - 4, n 8): -18 (65.1) % | BIM % change vs pretreatment, Median ([5]; DLs 1 - 4, n 8): -14.3% | BIM % change vs pretreatment, Mean (SD) ([5]; DLs 7 and 7.1, n 3): +6.7 (5.8) % | BIM % change vs pretreatment, Median ([5]; DLs 7 and 7.1, n 3): +10% | Cyclin D1 % change vs pretreatment, Mean (SD) ([6]; All patients, n 23): +0.19 (93.7) % | Cyclin D1 % change vs pretreatment, Median ([6]; All patients, n 23): -25% | Cyclin D1 % change vs pretreatment, Mean (SD) ([6]; DL 5, n 3): +56.8 (125.6) % | Cyclin D1 % change vs pretreatment, Median ([6]; DL 5, n 3): +5.00% | Cyclin D1 % change vs pretreatment, Mean (SD) ([6]; DL 6, n 5): -49.12 (30.7) % | Cyclin D1 % change vs pretreatment, Median ([6]; DL 6, n 5): -48.9% | Cyclin D1 % change vs pretreatment, Mean (SD) ([6]; DLs 1 - 4, n 10): -4.5 (95) % | Cyclin D1 % change vs pretreatment, Median ([6]; DLs 1 - 4, n 10): -24%
